Where two headings read alike, the source gives them in different places.
Experiments:
A549 (lung) cancer cells = assay: MTT cytotoxicity assay, A549; type: cell-based
Experimental: (§1) CEM (lymphoma), A549 (lung), PC-3 (prostate), MIA PaCa-2 (pancreatic), MCF-7 and MDA-MB-231 (breast) cancer cells were purchased from ATCC. PC3, A549, MDA-MB-231 and CEM were cultured in RPMI-1640 medium supplemented with 10% Fetal Bovine Serum (FBS) and 1% penicillin/streptomycin. MIA PaCa-2 and MCF-7 cells were cultured in DMEM supplemented with 10% FBS and 1% penicillin/streptomycin. Primary human dermal fibroblasts (HDF) from the dermis of normal human neonatal foreskin were obtained from the Dermatology Department, Emory University. MTT dye (Thiazolyl Blue Tetrazolium Bromide) dimethyl sulfoxide (DMSO), propidium iodide and RNase were purchased from Sigma (St. Louis, Mo.). Cells were cultured at 37° C. with 5% CO2.
(§2) MTT (3-(4,5-dimethylthiazol-2-yl)-2,5-diphenyltetrazolium bromide) assay was employed to evaluate the proliferative capacity of cells. Essentially, MTT is a colorimetric assay, which utilizes the […] tetrazolium dye and converts it into a colored formazan salt, which can be quantified by measuring absorbance at 570 nm. Briefly, a 96-well format was used to seed […] medium containing cells at a density of 5×10^3 cellsper well. After 24 h of incubation, cells were treated with gradient concentration of the test compounds, which were dissolved in DMSO. The final concentration of DMSO in the culture medium was maintained at 0.1%. After 48 h of drug incubation, the spent medium was removed and the wells were washed twice with PBS. 100 μl of fresh medium and 10 μl of MTT (5 mg/ml in PBS) was added to the wells and cells were incubated at 37° C. in dark for 4 h. The formazan product was dissolved by adding 100 μl of 100% DMSO after removing the medium from each well. The absorbance was measured at 570 nm using a Spectra Max Plus multi-well plate reader (Molecular Devices, USA).

[1] = system: CEM (lymphoma) cancer cells; assay: MTT cytotoxicity assay, CEM; type: cell-based; details: 48 h drug incubation
Experimental: as §1, §2

[2] = system: MCF-7 (breast) cancer cells; assay: MTT cytotoxicity assay, MCF-7; type: cell-based
Experimental: as §1, §2

[3] = system: MIA PaCa-2 (pancreatic) cancer cells; assay: MTT cytotoxicity assay, MIA PaCa-2; type: cell-based
Experimental: as §1, §2

[4] = system: PC-3 (prostate) cancer cells; assay: MTT cytotoxicity assay, PC-3; type: cell-based; details: 48 h drug incubation
Experimental: as §1, §2

MDA-MB-231 cells = assay: Cell-cycle analysis by flow cytometry; type: cell-based; details: 25 μM; for G2/M population up to 24 h: 12 and 24 h
Experimental: Flow-cytometric evaluation of the cell-cycle status was performed as described previously. Control and drug treated cells were centrifuged, washed with ice-cold PBS, and fixed in 70% ethanol. Tubes containing the cell pellets were stored at 4° C. for at least 24 h. Cells were then centrifuged at 1000 g for 10 min and the supernatant was discarded. The pellets were washed twice with 5 ml of PBS and then stained with 0.5 ml of propidium iodide (0.1% in 0.6% Triton-X in PBS) and 0.5 ml of RNase A (2 mg/ml) for 45 min in dark. Samples were then analyzed on a BD FACSCanto II flow-cytometer (BD Biosciences, Sparks, Md.).
To gain further insights into the precise mechanisms responsible for inhibition of cellular proliferation, we next examined the effect of benzofuranone ring substituted analogs on cell cycle distribution profiles of breast cancer MDA-MB-231 cells. The effect of compounds 3-7 on mitotic index (percent G2/M cells) and apoptotic index (percent sub-G1 cells) as a function of time in MDA-MB-231 cells was studied using fluorescence activated cell sorting (FACS) analysis. All 5 compounds were used at 25 μM concentration over 48 h of treatment.
Although staining of DNA with propidium iodide is extremely useful to determine the percent cell population in various cell-cycle phases, it has its limitations. For example, it cannot dissect out the differences between G2 and M phases as both have 4N DNA amounts. Thus, to explore further, a mitosis specific marker, MPM-2, was used to distinctly identify which phase the cells were in.

[5] = system: cancer cell lines (A549, CEM, MCF-7, MIA PaCa-2, PC-3); assay: MTT cytotoxicity assay, several cancer cell lines together; type: cell-based; details: for antiproliferative activity, comparison in words: across cell lines of Table 3
Experimental: as §1, §2

[6] = Homo sapiens, A549, 48 h drug incubation
[7] = Homo sapiens, MCF7, 48 h drug incubation
[8] = Homo sapiens, MIA PaCa-2, 48 h drug incubation

With `COc1ccc2c(c1O)C(=O)O[C@@H]2[C@H]1c2c(cc3c(c2OC)OCO3)CCN1C` [Compound 2, (S)-7-hydroxy-6-methoxy-3-((R)-4-methoxy-6-methyl-5,6,7,8-tetrahydro[1,3]dioxolo-[4,5-g]isoquinolin-5-yl)isobenzofuran-1(3H)-one] the melting point was 142 to 143 °C.

`COc1ccc2c(c1OC(C)=O)C(=O)O[C@@H]2[C@H]1c2c(cc3c(c2OC)OCO3)CCN1C` [Compound 3, (S)-5-methoxy-1-(R)-4-methoxy-6-methyl-5,6,7,8-tetrahydro-[1,3]dioxolo[4,5-g]isoquinolin-5-yl)-3-oxo-1,3-dihydroisobenzofuran-4-yl acetate] gave an IC50 (A549 (lung) cancer cells; 48 h drug incubation) of 3.2 µM, an IC50 [1] of 15.5 µM and an IC50 ([2]; 48 h drug incubation) of 166 µM. The IC50 ([3]; 48 h drug incubation) was 1 µM, the IC50 [4] was 9.3 µM and the “G2/M population up to 24 h” value (MDA-MB-231 cells) was “G2/M population increased considerably”. The “G2/M population at 48 h” value (MDA-MB-231 cells; 48 h) was “G2/M population decreased significantly”, the “antiproliferative activity, comparison in words” value [5] was “generally most-effective against most cell lines” and the IC50 ([5]; lung, lymphoma, pancreatic and prostate, read-out: IC50 values, lung, lymphoma, pancreatic and prostate cancer cells) was 1 to 15 µM.

With `COc1ccc2c(c1OC(=O)c1ccccc1)C(=O)O[C@@H]2[C@H]1c2c(cc3c(c2OC)OCO3)CCN1C` [Compound 4, (S)-5-methoxy-1-(R)-4-methoxy-6-methyl-5,6,7,8-tetrahydro-[1,3]dioxolo[4,5-g]isoquinolin-5-yl)-3-oxo-1,3-dihydroisobenzofuran-4-yl benzoate] the IC50 (A549 (lung) cancer cells; 48 h drug incubation) was 4.5 µM, the IC50 [1] was 49 µM and the IC50 ([2]; 48 h drug incubation) was 34 µM. It also gave an IC50 ([3]; 48 h drug incubation) of 1.7 µM, an IC50 [4] of 4.8 µM and an IC50 ([5]; lung, pancreatic and prostate, read-out: IC50 values, lung, pancreatic and prostate cancer cells) of less than 5 µM.

With `CCNC(=O)Oc1c(OC)ccc2c1C(=O)O[C@@H]2[C@H]1c2c(cc3c(c2OC)OCO3)CCN1C` [Compound 5] the IC50 (A549 (lung) cancer cells; 48 h drug incubation) was 5.6 µM, the IC50 [1] was 1.7 µM and the IC50 ([2]; 48 h drug incubation) was 49 µM. For the same compound, the IC50 ([3]; 48 h drug incubation) was 49 µM, the IC50 [4] was 6.6 µM and the “G2/M population up to 24 h” value (MDA-MB-231 cells) was “G2/M population increased considerably”. The “G2/M population at 48 h” value (MDA-MB-231 cells; 48 h) was “mostly remained arrested in G2/M phase”, the “apoptotic index (sub-G1)” value (MDA-MB-231 cells; 48 h) was “lower compared to compound 3” and the “duration of G2 arrest” value (MDA-MB-231 cells; MPM-2 marker) was “the arrest was maintained until 48 h”.

`COc1ccc2c(c1OC(=O)Nc1ccccc1)C(=O)O[C@@H]2[C@H]1c2c(cc3c(c2OC)OCO3)CCN1C` [Compound 6, (S)-5-methoxy-1-0)-4-methoxy-6-methyl-5,6,7,8-tetrahydro-[1,3]dioxolo[4,5-g]isoquinolin-5-yl)-3-oxo-1,3-dihydroisobenzofuran-4-yl phenylcarbamate] gave an IC50 (A549 (lung) cancer cells; 48 h drug incubation) of 50 µM, an IC50 [1] of 250 µM and an IC50 ([2]; 48 h drug incubation) of 182 µM. The IC50 ([3]; 48 h drug incubation) was 1 µM, the IC50 [4] was 83.2 µM and the IC50 ([5]; majority of the cell lines, read-out: IC50 values, majority of the cell lines) was 50 to 250 µM.

In the case of `COc1ccc2c(c1OC(=O)NCc1ccccc1)C(=O)O[C@@H]2[C@H]1c2c(cc3c(c2OC)OCO3)CCN1C` [Compound 7, (S)-5-methoxy-1-((R)-4-methoxy-6-methyl-5,6,7,8-tetrahydro-[1,3]dioxolo[4,5-g]isoquinolin-5-yl)-3-oxo-1,3-dihydroisobenzofuran-4-yl benzylcarbamate], the IC50 (A549 (lung) cancer cells; [6]) is reported as 25 µM, the IC50 [1] is reported as 7.1 µM and the IC50 [2, 7] is reported as 74.1 µM. For the same compound, the IC50 [3, 8] was 24.5 µM, the IC50 [4] was 49 µM and the “antiproliferative activity, comparison in words” value [5] was “relatively lower IC50 values when compared to compound 6”.

Compound `COc1ccc2c(c1OC)C(=O)O[C@@H]2[C@H]1c2c(cc3c(c2OC)OCO3)CCN1C` [Noscapine] has an IC50 (A549 (lung) cancer cells; [6]) of 73 µM, an IC50 [1] of 20 µM and an IC50 [2, 7] of 45 µM. It also gave an IC50 [3, 8] of 70 µM and an IC50 [4] of 51 µM.

Reference: patent publication US20140121233A1, “Synthesis and Characterization of Second Generation Benzofuranone Ring Substituted Noscapine Analogs” (GEORGIA STATE UNIVERSITY RESEARCH FOUNDATION, INC., priority 2011, published 2014)
